How the values were obtained:
[1] = parameters: method as in NCT03068351; conditions: Phase 1 monotherapy in multiple myeloma, 0.3, 0.45 and 0.6 mg/kg, same schedule; ref NCT03068351; cited from earlier work
[2] = tested on: CD11b expression in monocytes; test: Pharmacodynamics: CD11b expression by flow cytometry; format: in vivo, human
Method: For pharmacodynamic assessments, venous blood samples were collected and CD11b expression in monocytes was assessed as a surrogate marker of target engagement using flow cytometry before and after the first administration of RO6870810. Samples were obtained on cycle 1, day 1 (pre-dose and 2, 4 and 8 h post dose) and on cycle 1, day 15 (pre-dose and 2- and 4-h post dose). […] Formal hypothesis testing was not performed for this Phase 1 study. The sample size was based on a standard 3 + 3 dose-escalation design and was considered sufficient to evaluate the safety and clinical activity of RO6870810. AEs were coded using the current Medical Dictionary for Regulatory Activities, and safety and clinical efficacy were summarised using descriptive statistics. The 95% CI for the objective response rate was calculated using Wilson’s score method with continuity correction, and PFS was analysed using the Kaplan–Meier method. For the PK analyses, key exposure parameters such as maximum plasma concentration (Cmax) and area under the curve were summarised with descriptive statistics, and dose-exposure relationships were plotted graphically. Percentage changes in CD11b from baseline by flow cytometry were summarised with descriptive statistics and plotted over time. The relationship between percentage change from baseline in CD11b (average of three measurements taken pre-dose, at 2 h and at 4 h) on day 15 and the RO6870810 dose was plotted. To investigate the relationship between individual percentage changes in CD11b from baseline and RO6870810 concentration on day 15, the nonparametric regression LOESS curve fitting (locally weighted scatterplot smoothing) method was applied.

Cc1sc2c(c1C)C(c1ccc(Cl)cc1)=N[C@@H](CC(=O)NCCCN1CCN(C)CC1)c1nnc(C)n1-2 [RO6870810]
Grade 3–4 thrombocytopenia [1]: observed in a substantial proportion of patients
Change in CD11b during the dosing period ([2]; across dose levels, with the exception of the 0.03-mg/kg dose): sustained decreases in CD11b
Largest decreases in CD11b ([2]; at ≥0.2 mg/kg, cycle 1, day 15): ≥ 50%
Doses at which mean decreases in CD11b occurred ([2]; cycle 1, day 15): > 0.06 mg/kg
RO6870810 concentration reaching a 50% reduction in CD11b ([2]; cycle 1, day 15, LOESS curve): > 150 ng/mL
